Test results: article PMC13434769 (2026)

Tests used:
[1] = tested on: G12 (RNA, aptamer) GGGCAACUCCAAGCUAGAUCUACCGGUAAUUUAGGUCAUUGAGUGAACAGACGUCAAGCUAGUUGGGCUACUGGCUUCUAAAACACAGGUAAAAUG; assay: fluorescence titration (intrinsic fluorescence); settings: K+ (20 mM KPO4), 100 mM NaCl, 10 mM MgCl2, pH 7.5
[2] = tested on: G12 no stem (SMFS construct) (RNA, aptamer) GGCAGGGCUGACGUAGUUGGAGUGGUGCGGGAGGGUCAUUGAGUGAACAGACGUCAAGCUAGUUGGGCUACUGGCUUAGUGAGGGCAGAAUUCAGGUG; assay: optical tweezers passive mode, koff/kon; settings: 250 mM KCl, 20 mM NaCl, 5 mM MgCl2; 40 mM HEPES pH 7.4, ~25 °C; extrapolated to zero force; koff 6.0 s-1
[3] = tested on: G12 short stem (SMFS construct) (RNA, aptamer) GGCAGGGCUGACGUAGUUGGAGUGGUGCGGGAGGCCGUGGUCAUUGAGUGAACAGACGUCAAGCUAGUUGGGCUACUGGCUUCACGGAGUGAGGGCAGAAUUCAGGUG; assay: optical tweezers force-jump, koff/kon; settings: 250 mM KCl, 20 mM NaCl, 5 mM MgCl2; 40 mM HEPES pH 7.4, ~25 °C; near-zero force; koff 0.0055 s-1, kon 0.42 s-1 µM-1
[4] = tested on: G12 long stem (SMFS construct) (RNA, aptamer) GGCAGGGCUGACGUAGUUGGAGUGGUGCGGGAGGGGAGUAAUCUCGGUCAUUGAGUGAACAGACGUCAAGCUAGUUGGGCUACUGGCUUCGAGAUUACUCCAGUGAGGGCAGAAUUCAGGUG; assay: optical tweezers force ramp; settings: 250 mM KCl, 20 mM NaCl, 5 mM MgCl2; 40 mM HEPES pH 7.4, ~25 °C; intermediate I1 stabilised as in short stem
[5] = tested on: G12 (RNA, aptamer) GGGCAACUCCAAGCUAGAUCUACCGGUAAUUUAGGUCAUUGAGUGAACAGACGUCAAGCUAGUUGGGCUACUGGCUUCUAAAACACAGGUAAAAUG; assay: fluorescence titration, Hill fit (ex 375 nm, em 530 nm); settings: 20 °C; 10 nM doxycycline
[6] = tested on: tetracycline aptamer (SMFS construct) (RNA, aptamer) GGCAGGGCUGACGUAGUUGGAGUGGUGCGGGAGGAUAUAGUAAUCUGCAAAACAUACCAGAUGAAAAUCUGGAGAGGUGAAGAAUACGACCACCUGCAGAUUACUAUAUAGUGAGGGCAGAAUUCAGGUG; assay: optical tweezers force ramp; settings: 250 mM KCl, 20 mM NaCl, 5 mM MgCl2; 40 mM HEPES pH 7.4, ~25 °C; P1 unfolding force increased

Structure (SMILES): CN(C)[C@@H]1C(O)=C(C(N)=O)C(=O)[C@@]2(O)C(O)=C3C(=O)c4c(O)cccc4C[C@H]3C[C@@H]12
- binding ([1]; 5 nM sancycline): no

Structure (SMILES): C[C@H]1c2cccc(O)c2C(=O)C2=C(O)[C@]3(O)C(=O)C(C(N)=O)=C(O)[C@@H](N(C)C)[C@@H]3[C@@H](O)[C@@H]21
- KD,0 [2]: 3800 nM
- KD,0 [3]: 13.1 nM
- binding [4]: yes
- KD [5]: 2.8 nM

Structure (SMILES): CN(C)[C@@H]1C(O)=C(C(N)=O)C(=O)[C@@]2(O)C(O)=C3C(=O)c4c(O)ccc(Cl)c4[C@@](C)(O)[C@H]3C[C@@H]12
- binding ([1]; 5 nM 7-chloro-tetracycline): no

Structure (SMILES): CN(C)[C@@H]1C(=O)C(C(N)=O)=C(O)[C@@]2(O)C(=O)C3=C(O)c4c(O)cccc4[C@@](C)(O)[C@H]3C[C@@H]12
- binding ([1]; 1 nM tetracycline): no
- binding [6]: yes

Structure (SMILES): CN(C)c1ccc(O)c2c1C[C@H]1C[C@H]3[C@H](N(C)C)C(O)=C(C(N)=O)C(=O)[C@@]3(O)C(O)=C1C2=O
- binding ([1]; 20 nM minocycline): no

Structure (SMILES): Cc1c2c(c(O)c3c(O)cccc13)C(=O)[C@]1(O)C(O)=C(C(N)=O)C(=O)[C@@H](N(C)C)[C@@H]1C2
- binding ([1]; 20 nM anhydrotetracycline): no
